Assay results: patent US4109081A, “1-(3,5-Disubstituted-2,4,6-triiodophenyl)-3-(polyhydroxy-alkyl)urea compounds” (Mallinckrodt, Inc., priority 1975, dated 1978)
In brackets after ≈: the same amount, converted by molar mass. Read-outs that look alike come from different tables or passages of the source.

Tests used:
[1] = aqueous solubility (solubility of the product in water); type: physicochemical
Swiss Albino mice [2] = experiment: Intracerebral Toxicity in Mice; type: in vivo, mouse (Swiss Albino, Charles River); conditions: intracerebral injection, seven day observation; Example IV at 4.3% iodine, Example V at 13.3% iodine
Experimental: (§1) carried out in aqueous solutions of the compounds of Examples IV and V.
Swiss Albino mice (charles River) were used. Fixed volumes of aqueous solutions of the iodinated compounds were injected intracerebrally via a 27 gauge needle (1/4 inch in length) according to the method of Haley et al. (Br. J. of Pharmac. 12:12-15, 1957). In the case of the compound of Example IV, a solution of the compound having an iodine concentration of 4.3% was employed and in the case of the compound of Example V, a solution of the compound having an iodine concentration of 13.3% was employed. The animals were observed immediately following injections and daily throughout a seven day observation period. The LD50 values were calculated by the method of Litchfield and Wilcoxon (J. of Pharmac. and Exptl. Therap. 96:99-113, 1949).

Sprague-Dawley rats = experiment: Intracisternal Toxicity in Rats; type: in vivo, rat (Sprague-Dawley, Carworth); conditions: two day observation, Example IV at 7.43% iodine, Example V at 13.3% iodine
From the text: as §1
Sprague-Dawley (Carworth) rats were used. In the case of the compound of Example IV, a solution of the compound having an iodine concentration of 7.43% was employed and in the case of the compound of Example V, a solution of the compound having an iodine concentration of 13.3% was employed. The method used was a variation of the procedure outlined by Melartin et al. (Invest. Rad. 5: 13-21, 1970). After dosing, the animals were housed individually and observed for immediate reactions and periodically for a two day observation period. The LD50 values were calculated according to the method of Litchfield and Wilcoxon (J. of Pharmac. and Exptl. Therap. 96:99-115, 1949).

dogs = experiment: intravenous pyelographic studies in dogs; type: in vivo, dog; conditions: for visualization of kidneys, ureters and urinary bladder: 140 mg. I/kg., dogs
Experimental: The compounds of Examples I, II and III were employed in intravenous pyelographic studies carried out in dogs. At a dosage of 140 mg. […] At a dosage of 167 mg.

Swiss Albino mice [3] = experiment: Acute Intravenous Toxicity Studies in Mice; type: in vivo, mouse (Swiss Albino, Charles River); conditions: lateral tail vein, iodine concentration 28.2%, pH 7.0-7.2, approximately 1 ml./min., seven day observation
Experimental: as §1
Swiss Albino mice (Charles River) were dosed in the lateral tail vein with aqueous solutions of the above-noted iodinated compounds of Examples I, II and III having an iodine concentration of 28.2% with a pH of 7.0-7.2. The solutions were injected at the rate of approximately 1 ml./min. […] The LD50 values were calculated by the method of Litchfield and Wilcoxon (J. of Pharmac. and Exptl. Therap. 96: 99-113, 1949).

[4] = water, read-out: solubility of the product in water

Row | SMILES | solubility [1, 4] | LD50 Intracerebral (Mice) (Swiss Albino mice [2]) | LD50 Intracisternal (Rats) (Sprague-Dawley rats) | LD50 I.V. (Mice) (Swiss Albino mice [3]) | also measured
1 | COc1c(I)cc(I)c(NC(=O)N(C)C[C@H](O)[C@@H](O)[C@H](O)[C@H](O)CO)c1I [3-[3-methoxy-2,4,6-triiodophenyl]-1-methyl-1-(D-gluco-2,3,4,5,6-pentahydroxyhexyl)urea, reference compound] |  |  |  |  | solubility ([1]; insufficiently water-soluble for toxicity testing in aqueous solution, read-out: water solubility): < 10 mg/mL
2 | CNC(=O)c1c(I)c(NC(=O)N(C)C[C@H](O)[C@@H](O)[C@H](O)[C@H](O)CO)c(I)c(C(=O)N(C)C)c1I [Example I, 3-[3-(N,N-Dimethylcarbamyl)-2,4,6-triiodo-5-(N-methylcarbamyl)phenyl]-1-methyl-1-(D-gluco-2,3,4,5,6-pentahydroxylhexyl)urea] | ≥ 1000 mg/mL | 1,500 mg. I/kg. body wt. | 21 mg. I/kg. body wt. | 1,878 mg. I/kg. body wt. | visualization of kidneys, ureters and urinary bladder (dogs; five minutes after injection): good visualization of kidneys, ureters and urinary bladder
3 | CNC(=O)c1c(I)c(NC(=O)N[C@@H](C=O)[C@@H](O)[C@H](O)[C@H](O)CO)c(I)c(N(C)C(C)=O)c1I [Example III, 5-{3-[2-(D-Gluco-2-deoxy-3,4,5,6-tetrahydroxy-1-oxohexyl)]ureido}-2,4,6-triiodo-N-methyl-3-(N-methylacetamido)-benzamide] | ≥ 1000 mg/mL | 1,460 mg. I/kg. body wt. | < 40 mg. I/kg. body wt. | 6,800 mg. I/kg. body wt. | visualization of the kidneys and ureters (dogs; 167 mg. I/kg., five minutes after injection, dog): better visualization of the kidneys with some visualization of the ureters; visualization of the kidney (dogs; 167 mg. I/kg., one minute after injection, dog): a shadow of the kidney
4 | CNC(=O)c1c(I)c(NC(=O)N[C@@H](C=O)[C@@H](O)[C@H](O)[C@H](O)CO)c(I)c(C(=O)N(C)C)c1I [Example II] | ≥ 1000 mg/mL | 1,720 mg. I/kg. body wt. | 17 mg. I/kg. body wt. | 4,817 mg. I/kg. body wt. | visualization of kidneys, ureters and urinary bladder (dogs; five minutes after injection): good visualization of kidneys, ureters and urinary bladder
5 | CNC(=O)c1c(I)c(NC(C)=O)c(I)c(NC(=O)N[C@@H](C=O)[C@@H](O)[C@H](O)[C@H](O)CO)c1I [Example IV] | 180 to 200 mg/mL (≈ 228 to 253 mM) | > 350 mg. I/kg. body wt. | 62 mg. I/kg. body wt. |  | 
6 | CNC(=O)c1c(I)c(NC(=O)N[C@@H](C=O)[C@@H](O)[C@H](O)[C@H](O)CO)c(I)c(C(=O)NC)c1I [Example V, 5-{3-[2-(D-gluco-2-deoxy-3,4,5,6-tetrahydroxy-1-oxohexyl)]ureido}-2,4,6-tri-iodo-N,N'-dimethylisophthalamide] |  | > 899 mg. I/kg. body wt. | > 266 mg. I/kg. body wt. |  | solubility ([1]; water, depending upon the method employed, read-out: aqueous solubility): 27 to 80 mg/mL (≈ 34.2 to 101 mM)
7 | CNC(=O)c1c(I)c(NC(=O)N[C@@H](CO)[C@@H](O)[C@H](O)[C@H](O)CO)c(I)c(N(CCO)C(C)=O)c1I [Example VI, 3-{3-[1-(D-gluco-2-deoxy-1,3,4,5,6-pentahydroxyhexyl)]ureido}-5-[N-(2-hydroxyethyl)acetamido]-2,4,6-triiodo-N-methylbenzamide] |  |  |  |  | solubility ([1]; water, read-out: water solubility): ~780 mg/mL (≈ 933 mM)
